Results published in patent US20260174707A1, “USE OF GNRH ANTAGONIST IN REGULATION AND CONTROL OF ESTRUS OF MAMMAL” (priority 2022, published 2026).
Marks after values point to notes of the source that are not given here. Where a SMILES comes first, the peptide text is derived from it. [ ]: non-standard residue; d: D form. The star is where a group is joined. dPhe(4-NHCONH2) = NC(=O)Nc1ccc(C[C@@H](N)C(=O)O)cc1; Dihydroorotyl(S) = O=C1C[C@@H](C(=O)*)NC(=O)N1; dPhe(4-Cl) = N[C@H](Cc1ccc(Cl)cc1)C(=O)O; Phe(4-NH2) = Nc1ccc(C[C@H](N)C(=O)O)cc1; d2Nal = N[C@H](Cc1ccc2ccccc2c1)C(=O)O; Lys(iPr) = CC(C)NCCCC[C@H](N)C(=O)O; d3Pal = N[C@H](Cc1cccnc1)C(=O)O

Assays:
Format in all cases: in vivo
[1] = test system: male dogs; test: Inhibiting effect on male dogs (serum testosterone, scrotum circumference, sexual behavior); conditions: 1.5 mg/kg subcutaneous
Description: Adult healthy male dogs with normal reproductive capacity were selected and divided into an experimental group and a control group. Each group of the animals was treated with subcutaneous injections, male dogs in the control group were injected with normal saline, and male dogs in the experimental group were injected with 1.5 mg/kg body weight of Degarelix, the treated animals in each group were fed and observed in the same way. Blood was collected from the animals regularly to measure and record the concentration of testosterone in serum (blood was collected and detected before the injection of drugs, and 1 h, 2 h, 4 h, 6 h, 8 h, 24 h, 48 h, 72h, 120 h and 168 h after the injection of drugs, and after that, the blood was collected every 168 h (1 week) until the end of the experiment), and scrotum circumference of male animals was measured and recorded regularly, sexual behavior of the male animals was observed and recorded, and compared with that of male animals in the control group.

[2] = test system: female mice; test: Oestrus synchronization of female mice (Degarelix, then PMSG and HCG); conditions: 1.0 mg/kg sc; 5 units PMSG ip on 14th day; 5 units HCG ip after 46 hours
Description: It was discovered from the oestrus inhibition experiments that a dose of 1.0 mg/kg can inhibit oestrus of female mice for at least 15 days. Six 6-week-old female mice were selected for further oestrus synchronization experiments. The specific method was as follows: the female mice were subcutaneously injected 1.0 mg/kg of Degarelix, and intraperitoneally injected 5 units of PMSG on the 14th day after administration, and intraperitoneally injected 5 units of HCG after 46 hours, and then the oestrus of the female mice was detected.

[3] = test system: female mice; test: Oestrus inhibition in female mice (daily vaginal smear); conditions: only subcutaneous injection once
Description: Twenty-four 6-week-old female mice were selected and divided into 4 groups, with 6 mice in each group. The female mice in the negative control group were subcutaneously injected with normal saline, the female mice in the Abarelix group were subcutaneously injected with a dosage of 2 mg/kg/day for 8 consecutive days, the female mice in the Cetrorelix group were subcutaneously injected with a dosage of 2 mg/kg/day for 8 consecutive days, and the female mice in the Degarelix group were subcutaneously injected once with a dose of 2 mg/kg. After administration, vaginal smear experiments were performed on female mice every day to detect the stage of the oestrus cycle of female mice in each group. […] Thirty-two 6-week-old female mice were selected and divided into 4 groups, with 8 mice in each group. The female mice in the negative control group were subcutaneously injected with normal saline, and the female mice in the three Degarelix groups were subcutaneously injected with different dosages (0.4 mg/kg, 0.6 mg/kg and 1.0 mg/kg) of Degarelix once. After administration, vaginal smear experiments were performed on female mice every day to detect the oestrous condition.

[4] = test system: female dogs; test: Inhibiting effect on female dogs in proestrus; conditions: 1.5 mg/kg subcutaneous
Description: Healthy female dogs in proestrus (the proestrus period was less than 3 days) were selected and divided into an experimental group and a control group. Each group of the animals was treated with subcutaneous injections, the female dogs in control group were injected with normal saline, and the female dogs in experimental group were injected with 1.5 mg/kg body weight of Degarelix, each group of the treated animals was fed and observed in the same way to detect the oestrus of the female dogs.

[5] = test system: gilts; test: Oestrus synchronization of gilts (inhibitor, then PMSG); conditions: 1,000 units PMSG im on 20th day
Description: Comparison of experiments of administering Degarelix and altrenogest in achieving oestrus synchronization in gilts was performed. Twelve healthy adult gilts were selected and divided into two groups, namely an altrenogest group and a Degarelix group, with 6 gilts in each group. Among them, gilts in the altrenogest group were fed 20 mg of altrenogest every day for 18 consecutive days, while gilts in the Degarelix group were intramuscularly injected with 15 μg/kg body weight of Degarelix only on the first day. Both groups of gilts were intramuscularly injected with 1,000 units of PMSG on the 20th day after the first administration, then test whether the gilts in different treatment groups can achieve the estrus synchronization.

[6] = test system: sowpigs; test: Oestrus inhibition in sowpigs (oestrus performance observed); conditions: intramuscular injection once
Description: Thirty healthy adult sowpigs were selected and divided into a control group and Degarelix experimental groups, with 6 sowpigs in each group. The four Degarelix experimental groups were intramuscularly injected with different doses of Degarelix, namely 10 μg/kg body weight, 20 μg/kg body weight, 40 μg/kg body weight and 160 μg/kg body weight, respectively. The control group was intramuscularly injected with normal saline, and the oestrus performance (e.g., vulva performance and static reaction) of the sowpigs was observed and recorded to determine whether the sowpigs were in oestrus, and the time to restore oestrus after administration was recorded.

[7] = gilts, 15 μg/kg im only on first day
[8] = gilts fed 20 mg every day for 18 days

SMILES | Sexual behaviour [1] | Scrotal circumference ([1]; after a period of treatment) | Erection and semen collection ([1]; after treatment) | Testosterone concentration in serum ([1]; compared to control group) | Days on which female mice were concentrated in oestrus [2] | Time of inhibiting oestrus ([3]; low dose 0.4 mg/kg) | Time of inhibiting oestrus ([3]; middle dose 0.6 mg/kg) | Oestrus stage by vaginal smear [4] | Oestrus symptoms (vulvar redness and swelling, vaginal discharge of mucus) [4] | Days after PMSG injection on which gilts were in oestrus [5, 7] | Number of days over which gilts were concentrated in oestrus [5, 7] [days] | Oestrus of all gilts after administration of exogenous hormones [5, 7] | Time to restore oestrus after administration ([6]; 10 μg/kg) | Time to restore oestrus after administration ([6]; 20 μg/kg) | Time to restore oestrus after administration ([6]; 40 μg/kg) | Days after PMSG injection on which gilts were in oestrus [5, 8] | Number of days over which gilts were concentrated in oestrus [5, 8] [days] | Oestrus of all gilts after administration of exogenous hormones [5, 8]
CC(=O)N[C@H](Cc1ccc2ccccc2c1)C(=O)N[C@H](Cc1ccc(Cl)cc1)C(=O)N[C@H](Cc1cccnc1)C(=O)N[C@@H](CO)C(=O)N[C@@H](Cc1ccc(NC(=O)[C@@H]2CC(=O)NC(=O)N2)cc1)C(=O)N[C@H](Cc1ccc(NC(N)=O)cc1)C(=O)N[C@@H](CC(C)C)C(=O)N[C@@H](CCCCNC(C)C)C(=O)N1CCC[C@H]1C(=O)N[C@H](C)C(N)=O [Degarelix] (Ac-[d2Nal][dPhe(4-Cl)][d3Pal]S[Phe(4-NH2)](Dihydroorotyl(S))[dPhe(4-NHCONH2)]L[Lys(iPr)]P[dA]-NH2) | significantly reduced | significantly reduced | abnormal erections and no semen could be collected | decreased significantly | 17th and 18th days | 7.13 ± 2.09^b days | 8.50 ± 3.54^bc days | quickly changed from proestrus to diestrus | gradually disappeared 3 days after the injection | 3rd to the 5th day | 3 | in oestrus within one week | 21.50 ± 2.45^b days | 38.83 ± 2.37^c days | 53.83 ± 3.16^d days |  |  | 
C=CC[C@]1(O)CC[C@H]2[C@@H]3CCC4=CC(=O)CCC4=C3C=C[C@@]21C [altrenogest] |  |  |  |  |  |  |  |  |  |  |  |  |  |  |  | 3rd day to the 6th day | 4 | in oestrus within one week
